pIC50: −log10 of the molar value. Where a name gives a salt, the structure may show the parent alone.

Assay [1] deals with rhIL-2 stimulated STAT5 phosphorylation in isolated human T cells. Description: Human T Cell Assay: Inhibition of pSTAT5. The class given is cell-based. On the procedure: Human T Cell Assay: Inhibition of pSTAT5
An assay measuring the efficacy of JAK inhibitors on the functional response of recombinant human interleukin-2 (rhIL-2) stimulated STAT5 phosphorylation in isolated human T cells.
Human whole blood from individual donors was collected from the phlebotomy unit on-site. Peripheral venous blood (30-60 mL) from healthy volunteers of either sex was used as the source of T cells. T cell isolation from venous whole blood is routinely performed in a class II microbiological safety cabinet. Each sample was collected into between 3 and 6 10 mL Sodium Heparin Vacutainer tubes (BD #367874). The blood was poured into sterile 50 mL conicals (Corning #430828) and incubated with the T cell Rosette Sep Cocktail (Stemcell Technologies #15061) at 50 μL/mL antibody/blood ratio for 20 min. with shaking at room temperature. The blood/antibody mixture was then diluted 1:2 with PBS (Pfizer media prep)/2% FBS (Sigma #F4135) and 30 mL of the mixture was layered onto 15 mL Ficoll-Hypaque (GE Healthcare #17-1440-03) in 50 mL conical tubes. The tubes were then centrifuged at 1200×g for 20 min. at room temperature with no brake. Following centrifugation the T cells formed a buffy coat between the Ficoll-Hypaque and plasma layers. The plasma above the buffy coats was removed to within 5 mm of the buffy coat using a sterile Pasteur pipette. The buffy coats were then collected into fresh sterile 50 mL conical tubes containing 25 mL PBS/2% FBS (2 buffy coats per 50 mL conical). PBS/2% FBS was added to the buffy coat cells such that the final volume in the tube was 50 mL. The tubes were then centrifuged at 200×g for 15 min. at room temperature. The supernatant was discarded and the pellet re-suspended in 10-20 mL of DMEM (Pfizer media prep) Assay media/0.2% BSA (Miltenyi #130-091-376). A differential cell count was performed using a haemacytometer and cells were diluted to 1.1×10^6 T cells/ml in DMEM/0.2% BSA media. Compounds (10 mM-0.3 μM) were diluted with Hanks Balanced Salt Solution (HBSS) (Sigma #H6648) at 1:100 dilution. Immediately following cell isolation and compound dilution, 90 μl/well of T cells (˜1×10^6/ml) in assay medium (DMEM+0.2% BSA) was added to the VWR Deep well V bottom plate (#3906-520-300). 10 μl/well of compound (final concentration range of 10 μM-0.3 nM with 0.1% DMSO) or 0.1% DMSO in HBSS as controls was added to the appropriate wells. Plates were incubated for 1 hour at 37° C., 5% CO2 incubator. 10 μl of 3.3 μg/mL rhIL-2 (R&D Systems #202-IL) was added to the cells (300 ng/ml final assay concentration). Wells containing T cells, medium with 0.1% DMSO and no rhIL-2 were used as background controls. Plates were incubated for 15 min at 37° C. After rhIL-2 stimulation, 800 μL of cold PBS/0.1% BSA was added and the plates were centrifuged at 1400 rpm for 5 min at 4° C. Supernatant was aspirated and 100 μL of ice-cold MSD lysis buffer containing protease and phosphatase inhibitors from Phospho-STAT5a/b Tyr694 assay kit (Meso-Scale Discovery #K150IGD) was added to the cell pellet. Plates were shaken for 30 min. at 4° C. and then frozen overnight. The following day, cell lysates were assayed using the MSD ELISA kit protocol for detection of pSTAT5.
Data were collected and transformed into percent inhibition and calculated using the following formula: […]

The subject of assay [2] is rhIFNγ stimulated STAT-3 phosphorylation in the A549 human epithelial cell line. Description: A549 Cell Assay: Inhibition of pSTAT3. The class given is cell-based. The conditions noted are these: Homo sapiens; A549 cells. Put shortly:
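Percent inhibition of STAT3 Tyr705 phosphorylation was measured by MSD immunoassay of cell lysates. A549 cells were given compound for 1 h at 37° C (final 0.3 nM to 10 μM, 0.1% DMSO, in 0.2% BSA DMEM), followed by 30 min of rhIFNγ stimulation at 20 ng/mL final. Unstimulated DMSO wells served as background.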

The target of a further assay is JAK2 (Homo sapiens (Human), UniProt O60674). Description: JAK Caliper Enzyme Assay at 1 mM ATP (JAK2). The class given is biochemical. The conditions noted are these: Caliper assay at 1 mM ATP.
JAK2, sequence (O60674 whole entry): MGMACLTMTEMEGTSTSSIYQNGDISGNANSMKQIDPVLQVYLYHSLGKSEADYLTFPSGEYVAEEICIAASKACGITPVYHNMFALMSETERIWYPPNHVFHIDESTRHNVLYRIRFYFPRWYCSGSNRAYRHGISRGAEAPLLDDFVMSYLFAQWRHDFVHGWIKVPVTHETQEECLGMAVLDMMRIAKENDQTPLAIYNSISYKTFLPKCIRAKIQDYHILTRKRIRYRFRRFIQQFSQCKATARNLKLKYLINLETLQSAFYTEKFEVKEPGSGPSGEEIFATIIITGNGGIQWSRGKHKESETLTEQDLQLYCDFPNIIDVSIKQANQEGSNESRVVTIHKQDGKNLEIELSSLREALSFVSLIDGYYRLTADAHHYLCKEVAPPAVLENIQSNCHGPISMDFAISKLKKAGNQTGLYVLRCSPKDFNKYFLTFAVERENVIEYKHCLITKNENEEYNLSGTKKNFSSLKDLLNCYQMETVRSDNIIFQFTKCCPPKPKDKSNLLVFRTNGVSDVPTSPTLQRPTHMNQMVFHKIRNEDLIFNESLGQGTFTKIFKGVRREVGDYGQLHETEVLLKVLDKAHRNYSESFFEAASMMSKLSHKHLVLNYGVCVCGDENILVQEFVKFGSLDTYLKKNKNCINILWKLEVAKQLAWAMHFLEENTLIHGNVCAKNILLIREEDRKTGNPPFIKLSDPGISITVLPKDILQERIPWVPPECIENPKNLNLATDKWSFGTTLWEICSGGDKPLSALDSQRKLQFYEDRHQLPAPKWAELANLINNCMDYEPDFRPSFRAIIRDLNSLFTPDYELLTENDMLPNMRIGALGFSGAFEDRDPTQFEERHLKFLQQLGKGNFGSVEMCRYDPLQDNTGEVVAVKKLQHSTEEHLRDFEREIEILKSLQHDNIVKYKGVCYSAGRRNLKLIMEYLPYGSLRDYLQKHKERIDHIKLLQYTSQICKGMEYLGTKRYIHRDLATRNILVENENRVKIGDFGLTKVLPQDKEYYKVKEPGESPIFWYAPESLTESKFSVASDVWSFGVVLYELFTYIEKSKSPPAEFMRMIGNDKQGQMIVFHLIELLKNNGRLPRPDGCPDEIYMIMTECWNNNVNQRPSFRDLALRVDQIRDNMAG
A further assay addresses TYK2 (Homo sapiens (Human), UniProt P29597). Description: JAK Caliper Enzyme Assay at 1 mM ATP (TYK2). The class given is biochemical. The conditions noted are these: Caliper assay at 1 mM ATP.
The target in a further assay is JAK1 (Homo sapiens (Human), UniProt P23458). Description: JAK Caliper Enzyme Assay at 1 mM ATP (JAK1). The class given is biochemical. The conditions noted are these: Caliper assay at 1 mM ATP.
JAK1, sequence (P23458 whole entry): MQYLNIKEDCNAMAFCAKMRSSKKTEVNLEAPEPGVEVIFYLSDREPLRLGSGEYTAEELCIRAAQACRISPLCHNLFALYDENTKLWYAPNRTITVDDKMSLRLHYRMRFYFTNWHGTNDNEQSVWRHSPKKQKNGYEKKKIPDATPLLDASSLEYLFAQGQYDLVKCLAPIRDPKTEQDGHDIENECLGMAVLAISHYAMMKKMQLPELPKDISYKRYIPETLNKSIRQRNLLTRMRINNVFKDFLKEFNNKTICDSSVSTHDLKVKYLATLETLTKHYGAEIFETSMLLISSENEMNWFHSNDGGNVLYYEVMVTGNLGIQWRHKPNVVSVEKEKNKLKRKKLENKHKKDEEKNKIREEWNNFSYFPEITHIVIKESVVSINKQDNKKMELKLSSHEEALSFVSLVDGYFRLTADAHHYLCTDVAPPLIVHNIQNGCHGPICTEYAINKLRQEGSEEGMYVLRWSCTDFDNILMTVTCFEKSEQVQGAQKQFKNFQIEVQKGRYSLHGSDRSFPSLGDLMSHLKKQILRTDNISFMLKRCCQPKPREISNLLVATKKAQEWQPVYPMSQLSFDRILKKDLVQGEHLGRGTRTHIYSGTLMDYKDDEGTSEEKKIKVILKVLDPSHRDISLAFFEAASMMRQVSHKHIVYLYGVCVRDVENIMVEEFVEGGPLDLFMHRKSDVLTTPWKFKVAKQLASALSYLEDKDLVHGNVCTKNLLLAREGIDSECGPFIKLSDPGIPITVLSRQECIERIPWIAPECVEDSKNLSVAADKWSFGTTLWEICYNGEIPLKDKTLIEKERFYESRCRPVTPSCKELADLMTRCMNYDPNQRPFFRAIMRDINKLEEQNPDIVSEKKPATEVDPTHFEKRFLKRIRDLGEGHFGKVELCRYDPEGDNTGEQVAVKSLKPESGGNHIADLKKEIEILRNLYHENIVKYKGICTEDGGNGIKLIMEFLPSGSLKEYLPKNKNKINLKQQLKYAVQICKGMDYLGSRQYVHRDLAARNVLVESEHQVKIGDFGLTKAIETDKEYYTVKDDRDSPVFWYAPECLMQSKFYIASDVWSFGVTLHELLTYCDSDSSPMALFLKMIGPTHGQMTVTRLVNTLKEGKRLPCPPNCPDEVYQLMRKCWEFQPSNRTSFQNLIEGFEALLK
The target of the next assay is JAK3 (Homo sapiens (Human), UniProt P52333). Description: JAK Caliper Enzyme Assay at 1 mM ATP (JAK3). The assay is classed as biochemical. The conditions noted are these: Caliper assay at 1 mM ATP.
JAK3, sequence (P52333 whole entry): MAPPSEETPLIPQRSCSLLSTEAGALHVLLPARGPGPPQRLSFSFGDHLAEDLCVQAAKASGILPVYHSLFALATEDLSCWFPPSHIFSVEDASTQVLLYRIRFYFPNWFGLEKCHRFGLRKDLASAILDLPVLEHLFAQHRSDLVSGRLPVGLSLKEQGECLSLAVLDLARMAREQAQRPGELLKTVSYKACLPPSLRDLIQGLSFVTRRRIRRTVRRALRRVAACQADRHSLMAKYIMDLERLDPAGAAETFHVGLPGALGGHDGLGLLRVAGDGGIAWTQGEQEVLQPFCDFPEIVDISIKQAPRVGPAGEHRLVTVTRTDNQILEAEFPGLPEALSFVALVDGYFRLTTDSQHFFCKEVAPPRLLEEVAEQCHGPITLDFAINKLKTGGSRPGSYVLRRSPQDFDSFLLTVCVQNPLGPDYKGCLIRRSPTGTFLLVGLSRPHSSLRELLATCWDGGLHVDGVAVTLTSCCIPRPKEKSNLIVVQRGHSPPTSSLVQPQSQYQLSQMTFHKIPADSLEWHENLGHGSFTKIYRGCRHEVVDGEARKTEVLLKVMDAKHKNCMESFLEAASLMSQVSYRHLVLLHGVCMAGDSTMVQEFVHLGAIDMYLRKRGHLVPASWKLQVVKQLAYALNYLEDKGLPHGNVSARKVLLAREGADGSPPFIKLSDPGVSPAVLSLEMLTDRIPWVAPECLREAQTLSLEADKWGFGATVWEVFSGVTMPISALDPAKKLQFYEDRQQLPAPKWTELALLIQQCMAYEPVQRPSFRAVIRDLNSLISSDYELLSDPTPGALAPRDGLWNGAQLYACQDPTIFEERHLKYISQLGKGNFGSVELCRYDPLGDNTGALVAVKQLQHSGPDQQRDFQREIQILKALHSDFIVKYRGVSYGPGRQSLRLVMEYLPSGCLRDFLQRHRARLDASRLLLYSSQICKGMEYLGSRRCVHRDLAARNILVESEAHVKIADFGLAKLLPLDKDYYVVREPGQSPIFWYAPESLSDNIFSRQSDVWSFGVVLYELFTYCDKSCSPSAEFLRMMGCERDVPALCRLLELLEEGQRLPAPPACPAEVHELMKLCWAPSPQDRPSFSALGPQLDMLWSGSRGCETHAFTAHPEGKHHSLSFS

TYK2, sequence (P29597 whole entry): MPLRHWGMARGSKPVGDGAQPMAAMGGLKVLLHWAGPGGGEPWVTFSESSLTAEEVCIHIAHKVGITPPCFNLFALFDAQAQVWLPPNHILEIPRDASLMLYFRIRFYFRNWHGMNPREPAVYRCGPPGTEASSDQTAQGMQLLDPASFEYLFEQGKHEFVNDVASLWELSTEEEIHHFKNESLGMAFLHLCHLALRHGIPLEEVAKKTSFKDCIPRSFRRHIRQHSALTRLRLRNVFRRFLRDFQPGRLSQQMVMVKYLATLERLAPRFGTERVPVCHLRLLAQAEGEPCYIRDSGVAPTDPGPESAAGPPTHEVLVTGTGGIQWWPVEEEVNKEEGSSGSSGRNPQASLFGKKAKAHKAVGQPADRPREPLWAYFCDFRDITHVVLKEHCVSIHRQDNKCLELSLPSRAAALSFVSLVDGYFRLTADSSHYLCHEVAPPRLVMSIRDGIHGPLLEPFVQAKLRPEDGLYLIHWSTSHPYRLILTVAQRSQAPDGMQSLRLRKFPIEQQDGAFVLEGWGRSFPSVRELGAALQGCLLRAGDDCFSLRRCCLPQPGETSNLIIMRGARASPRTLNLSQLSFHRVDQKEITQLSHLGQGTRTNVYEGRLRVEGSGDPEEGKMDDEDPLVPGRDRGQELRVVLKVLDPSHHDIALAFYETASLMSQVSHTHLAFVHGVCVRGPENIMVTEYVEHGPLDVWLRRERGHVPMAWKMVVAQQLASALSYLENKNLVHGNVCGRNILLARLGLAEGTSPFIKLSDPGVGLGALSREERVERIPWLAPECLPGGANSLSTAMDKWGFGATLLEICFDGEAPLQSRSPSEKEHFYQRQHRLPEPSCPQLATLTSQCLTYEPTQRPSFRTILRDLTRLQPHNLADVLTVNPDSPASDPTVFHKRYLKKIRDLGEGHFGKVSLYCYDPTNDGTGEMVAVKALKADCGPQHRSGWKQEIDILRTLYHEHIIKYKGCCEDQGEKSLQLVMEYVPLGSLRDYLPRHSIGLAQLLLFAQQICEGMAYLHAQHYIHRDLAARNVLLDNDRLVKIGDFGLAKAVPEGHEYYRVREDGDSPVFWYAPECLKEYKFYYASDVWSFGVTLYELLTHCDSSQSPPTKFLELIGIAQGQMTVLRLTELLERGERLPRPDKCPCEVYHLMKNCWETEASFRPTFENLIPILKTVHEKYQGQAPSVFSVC

The pIC50 is the negative decadic logarithm of the IC50, by convention in mol/L. Take `CNC(=O)c1n[nH]c2cc(-c3cc(F)c(O)cc3CC(F)(F)F)nc(NCc3ccccc3N(C)S(C)(=O)=O)c12` [Example 20, 6-[5-fluoro-4-hydroxy-2-(2,2,2-trifluoroethyl)phenyl]-N-methyl-4-({2-[methyl(methylsulfonyl)amino]benzyl}amino)-1H-pyrazolo[4,3-c]pyridine-3-carboxamide]: the pIC50 is 7.50 in assay [1]; 7.73 in assay [2]; 7.78 at JAK2; 7.68 against TYK2; 8.44 at JAK1; 7.02 against JAK3.
Consider `CCc1cc(O)c(F)cc1-c1nc(NCc2ccccc2N(C)S(C)(=O)=O)c2c(C(=O)NC)n[nH]c2n1` [Example 93, 6-(2-Ethyl-5-fluoro-4-hydroxyphenyl)-N-methyl-4-((2-(N-methylmethylsulfonamido)benzyl)amino)-1H-pyrazolo[3,4-d]pyrimidine-3-carboxamide], for which the pIC50 is 7.39 in assay [1] and 7.50 in assay [2].
Regarding `CN(c1ccccc1CNc1nc(-c2cc(F)c(O)cc2CC(F)(F)F)nc2[nH]nc(C(N)=O)c12)S(C)(=O)=O` [Example 98, 6-(5-Fluoro-4-hydroxy-2-(2,2,2-trifluoroethyl)phenyl)-4-((2-(N-methylmethylsulfonamido)benzyl)amino)-1H-pyrazolo[3,4-d]pyrimidine-3-carboxamide], the results for the pIC50 in assay [1] and in assay [2] were 6.49 and 6.14, respectively.
With `CCc1cc(O)c(F)cc1-c1cc2[nH]ncc2c(NCc2ccccc2N(C)S(C)(=O)=O)n1` [Example 131, N-[2-({[6-(2-Ethyl-5-fluoro-4-hydroxyphenyl)-1H-pyrazolo[4,3-c]pyridin-4-yl]amino}methyl)phenyl]-N-methylmethanesulfonamide], the values for the pIC50 in assay [1] and in assay [2] were 7.61 and 8.13, respectively.
Take `CCc1cc(O)c(F)cc1-c1cc2[nH]ncc2c(NCc2cc(C)ccc2N(C)S(C)(=O)=O)n1` [Example 132, N-[2-({[6-(2-ethyl-5-fluoro-4-hydroxyphenyl)-1H-pyrazolo[4,3-c]pyridin-4-yl]amino}methyl)-4-methylphenyl]-N-methylmethanesulfonamide hydrochloride]: the pIC50 in assay [1] was 6.69; in assay [2], 6.59.
`CCc1cc(O)c(F)cc1-c1cc2[nH]ncc2c(NCc2cc(Cl)ccc2N(C)S(C)(=O)=O)n1` [Example 133, N-[4-chloro-2-({[6-(2-ethyl-5-fluoro-4-hydroxyphenyl)-1H-pyrazolo[4,3-c]pyridin-4-yl]amino}methyl)phenyl]-N-methylmethanesulfonamide hydrochloride]: the pIC50 in assay [1] was 7.46; in assay [2] it was 8.00.
In the case of `CCc1cc(O)c(F)cc1-c1cc2[nH]ncc2c(N(C)Cc2ccccc2N(CC)S(C)(=O)=O)n1` [Example 145, N-Ethyl-N-[2-({[6-(2-ethyl-5-fluoro-4-hydroxyphenyl)-1H-pyrazolo[4,3-c]pyridin-4-yl](methyl)amino}methyl)phenyl]methanesulfonamide hydrochloride], the values for the pIC50 in assay [1] and in assay [2] were 6.80 and 7.80, respectively.
As for `CCc1cc(O)c(F)cc1-c1cc2[nH]ncc2c(N(C)Cc2ccccc2N(C)S(C)(=O)=O)n1` [Example 146, N-[2-({[6-(2-Ethyl-5-fluoro-4-hydroxyphenyl)-1H-pyrazolo[4,3-c]pyridin-4-yl](methyl)amino}methyl)phenyl]-N-methylmethanesulfonamide hydrochloride], the values for the pIC50 in assay [1] and in assay [2] were 7.21 and 8.12, respectively.
In the case of `CCc1cc(O)c(F)cc1-c1cc2[nH]nc(-c3nnc(C)[nH]3)c2c(NCc2ccccc2N(C)S(C)(=O)=O)n1` [Example 165, N-[2-({[6-(2-Ethyl-5-fluoro-4-hydroxyphenyl)-3-(5-methyl-4H-1,2,4-triazol-3-yl)-1H-pyrazolo[4,3-c]pyridin-4-yl]amino}methyl)phenyl]-N-methylmethanesulfonamide], the figures for the pIC50 in assay [1] and in assay [2] were 7.04 and 6.25, respectively.
As to `Cc1ccc(-c2nnc(-c3n[nH]c4cc(-c5cc(F)c(O)cc5CC(F)(F)F)nc(NCc5ccccc5N(C)S(C)(=O)=O)c34)[nH]2)cn1` [Example 166, N-{2-[({6-[5-Fluoro-4-hydroxy-2-(2,2,2-trifluoroethyl)phenyl]-3-[5-(6-methylpyridin-3-yl)-4H-1,2,4-triazol-3-yl]-1H-pyrazolo[4,3-c]pyridin-4-yl}amino)methyl]phenyl}-N-methylmethanesulfonamide], the pIC50 is 6.23 in assay [1] and 6.16 in assay [2].
With `CC(=O)N1CCc2[nH]c(-c3n[nH]c4nc(-c5cc(F)c(O)cc5CC(F)(F)F)nc(NCc5cc(O)ccc5N(C)S(C)(=O)=O)c34)nc2C1` [Example 170, N-{2-[({3-(5-Acetyl-4,5,6,7-tetrahydro-1H-imidazo[4,5-c]pyridin-2-yl)-6-[5-fluoro-4-hydroxy-2-(2,2,2-trifluoroethyl)phenyl]-1H-pyrazolo[3,4-d]pyrimidin-4-yl}amino)methyl]-4-hydroxyphenyl}-N-methylmethanesulfonamide], the pIC50 was 6.12 in assay [1] and 5.87 in assay [2].
